Results on 4 compounds are retold here after patent US11572588B2, “Methods of evaluating treatment efficacy and/or treatment duration in mycobacterial diseases” (priority 2017, dated 2023).

The subject of the assay is M. tuberculosis Erdman strain. The assay is described as follows: highly lethal in vitro drug exposure of log-phase M. tuberculosis; killing and pre-rRNA/rRNA by RNAseq and ddPCR. The class given is cell-based. The note with it: for pre-rRNA in M tuberculosis that survived exposure (FIG. 5, RNAseq reads): 48 h lethal exposure; for M. tuberculosis killed: 48 h of exposure, lethal dose, log phase culture; for 16S normalized counts, Transcripts per Million (TPM) / 23S normalized counts, Transcripts per Million (TPM) / ETS1 normalized counts, Transcripts per Million (TPM) / ITS1 normalized counts, Transcripts per Million (TPM) / ITS1/23S, Pre-RNA/23S (×10^4) / ETS1/23S, Pre-RNA/23S (×10^4): RNAseq; for ITS1/23S, Pre-RNA/23S (×10^4): control 466; for ETS1/23S, Pre-RNA/23S (×10^4): control 514; for effect on ETS1 and ITS1: relative to control.

[1] abbreviates: lethal in vitro exposure, Day 2.
[2] abbreviates: lethal in vitro exposure, Day 7.
Setting [3] is: lethal in vitro exposure, Day 5.

As to `COc1nc2ccc(Br)cc2cc1[C@@H](c1ccccc1)[C@@](O)(CCN(C)C)c1cccc2ccccc12` [Bedaquiline, bedaquiline], the “pre-rRNA in M tuberculosis that survived exposure (FIG. 5, RNAseq reads)” value (from here on “pre-rRNA”) is listed as “negligible pre-rRNA” and the M. tuberculosis killed is reported as around 99.9%. In addition, under setting [1], the “16S normalized counts, Transcripts per Million (TPM)” value is reported as 343,978 TPM; the “23S normalized counts, Transcripts per Million (TPM)” value is given as 654,924 TPM; the “ETS1 normalized counts, Transcripts per Million (TPM)” value came out at 548 TPM; the “ITS1 normalized counts, Transcripts per Million (TPM)” value is reported as 551 TPM. For the same compound, under setting [1], the “ITS1/23S, Pre-RNA/23S (×10^4)” value is 8.4 ×10^4 and the “ETS1/23S, Pre-RNA/23S (×10^4)” value is listed as 8.4 ×10^4. In addition, under setting [2], the “16S normalized counts, Transcripts per Million (TPM)” value is on record as 208,644 TPM; the “23S normalized counts, Transcripts per Million (TPM)” value is reported as 788,154 TPM; the “ETS1 normalized counts, Transcripts per Million (TPM)” value is on record as 1,778 TPM; the “ITS1 normalized counts, Transcripts per Million (TPM)” value is reported as 1,425 TPM. For the same compound, under setting [2], the “ITS1/23S, Pre-RNA/23S (×10^4)” value is 18.1 ×10^4 and the “ETS1/23S, Pre-RNA/23S (×10^4)” value is recorded as 22.6 ×10^4. Moreover, under “lethal in vitro exposure”, the “decrease of ETS1/23S relative to control” value was above 20 fold and the “decrease of ITS1/23S relative to control” value is above 20 fold.
Consider `CO[C@H]1/C=C/O[C@@]2(C)Oc3c(C)c(O)c4c(O)c(c(/C=N/N5CCN(C)CC5)c(O)c4c3C2=O)NC(=O)/C(C)=C\C=C\[C@H](C)[C@H](O)[C@@H](C)[C@@H](O)[C@@H](C)[C@H](OC(C)=O)[C@@H]1C` [Rifampin, rifampin], for which the “pre-rRNA” value was “negligible pre-rRNA” and the M. tuberculosis killed came to 99.99%. Also, under setting [1], the “16S normalized counts, Transcripts per Million (TPM)” value is 375,111 TPM; the “23S normalized counts, Transcripts per Million (TPM)” value was 624,759 TPM; the “ETS1 normalized counts, Transcripts per Million (TPM)” value came out at 58 TPM; the “ITS1 normalized counts, Transcripts per Million (TPM)” value stood at 72 TPM. Also, under setting [1], the “ITS1/23S, Pre-RNA/23S (×10^4)” value is on record as 1.15 ×10^4 and the “ETS1/23S, Pre-RNA/23S (×10^4)” value is listed as 0.92 ×10^4. In addition, under setting [3], the “16S normalized counts, Transcripts per Million (TPM)” value is on record as 306,538 TPM; the “23S normalized counts, Transcripts per Million (TPM)” value is reported as 693,196 TPM; the “ETS1 normalized counts, Transcripts per Million (TPM)” value is reported as 30 TPM; the “ITS1 normalized counts, Transcripts per Million (TPM)” value is given as 235 TPM. In addition, under setting [3], the “ITS1/23S, Pre-RNA/23S (×10^4)” value is given as 3.39 ×10^4 and the “ETS1/23S, Pre-RNA/23S (×10^4)” value is 0.44 ×10^4. For the same compound, under “lethal in vitro exposure”, the “decrease of ETS1/23S relative to control” value was above 100 fold; the “decrease of ITS1/23S relative to control” value is reported as above 100 fold; the “effect on ETS1 and ITS1” value is “nearly complete abrogated ETS1 and ITS1”.
Take `NNC(=O)c1ccncc1` [Isoniazid, isoniazid]: the “pre-rRNA” value was “abundant pre-rRNA” and the M. tuberculosis killed is listed as 99.99%. Under setting [1], the “16S normalized counts, Transcripts per Million (TPM)” value is on record as 423,197 TPM; the “23S normalized counts, Transcripts per Million (TPM)” value is listed as 556,210 TPM; the “ETS1 normalized counts, Transcripts per Million (TPM)” value is listed as 12,092 TPM; the “ITS1 normalized counts, Transcripts per Million (TPM)” value is 8,502 TPM. Under setting [1], the “ITS1/23S, Pre-RNA/23S (×10^4)” value is 153 ×10^4 and the “ETS1/23S, Pre-RNA/23S (×10^4)” value is on record as 217 ×10^4. Under setting [2], the “16S normalized counts, Transcripts per Million (TPM)” value was 451,670 TPM; the “23S normalized counts, Transcripts per Million (TPM)” value is reported as 519,579 TPM; the “ETS1 normalized counts, Transcripts per Million (TPM)” value is listed as 16,987 TPM; the “ITS1 normalized counts, Transcripts per Million (TPM)” value was 11,763 TPM. In addition, under setting [2], the “ITS1/23S, Pre-RNA/23S (×10^4)” value is on record as 226 ×10^4 and the “ETS1/23S, Pre-RNA/23S (×10^4)” value is given as 327 ×10^4. For the same compound, for the setting “lethal in vitro exposure”, the “decrease of ETS1/23S” value is around 50% and the “decrease of ITS1/23S” value is around 50%.
As to `[H]/N=C(/N)N[C@H]1[C@H](O)[C@@H](O)[C@H](O[C@@H]2O[C@@H](C)[C@](O)(C=O)[C@H]2O[C@@H]2O[C@@H](CO)[C@H](O)[C@@H](O)[C@@H]2NC)[C@@H](N/C(N)=N\[H])[C@@H]1O` [Streptomycin, streptomycin], the “pre-rRNA” value is reported as “abundant pre-rRNA” and the M. tuberculosis killed came out at 99.99%. Under setting [1], the “16S normalized counts, Transcripts per Million (TPM)” value is on record as 453,930 TPM; the “23S normalized counts, Transcripts per Million (TPM)” value is given as 430,311 TPM; the “ETS1 normalized counts, Transcripts per Million (TPM)” value is recorded as 78,749 TPM; the “ITS1 normalized counts, Transcripts per Million (TPM)” value is given as 37,010 TPM. Further, under setting [1], the “ITS1/23S, Pre-RNA/23S (×10^4)” value is given as 860 ×10^4 and the “ETS1/23S, Pre-RNA/23S (×10^4)” value is on record as 1,830 ×10^4. For the same compound, under setting [3], the “16S normalized counts, Transcripts per Million (TPM)” value was 406,987 TPM; the “23S normalized counts, Transcripts per Million (TPM)” value is 488,000 TPM; the “ETS1 normalized counts, Transcripts per Million (TPM)” value is recorded as 72,994 TPM; the “ITS1 normalized counts, Transcripts per Million (TPM)” value is on record as 32,019 TPM. Further, under setting [3], the “ITS1/23S, Pre-RNA/23S (×10^4)” value is listed as 656 ×10^4 and the “ETS1/23S, Pre-RNA/23S (×10^4)” value was 1,496 ×10^4. Further, the “effect on ETS1 and ITS1” value (lethal in vitro exposure) is “increased ETS1 and ITS1”.
